Results: US8314247B2, “Hydrazone derivative” (Mitsubishi Tanabe Pharma Corporation, priority 2007, dated 2012)

Biological target: T1, human-liver type GST-GK (Homo sapiens, UniProt P35557)
T1 construct: made in house; host or cells: E. coli
T1 sequence (P35557 1-466 isoform P35557-2): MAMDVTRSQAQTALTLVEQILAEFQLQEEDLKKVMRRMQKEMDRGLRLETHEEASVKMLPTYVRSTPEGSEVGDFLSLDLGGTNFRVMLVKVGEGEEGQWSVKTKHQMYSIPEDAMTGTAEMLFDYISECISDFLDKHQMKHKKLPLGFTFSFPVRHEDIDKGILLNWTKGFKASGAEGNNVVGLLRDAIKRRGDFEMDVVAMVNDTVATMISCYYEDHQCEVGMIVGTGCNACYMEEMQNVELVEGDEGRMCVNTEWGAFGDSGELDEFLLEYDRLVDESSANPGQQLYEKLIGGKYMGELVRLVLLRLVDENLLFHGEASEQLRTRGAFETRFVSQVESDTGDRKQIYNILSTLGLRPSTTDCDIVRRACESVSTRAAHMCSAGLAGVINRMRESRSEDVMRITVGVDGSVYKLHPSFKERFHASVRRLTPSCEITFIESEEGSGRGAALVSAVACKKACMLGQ
Experiment: Glucokinase activation effect (G6PDH-coupled NADPH assay)
Format: biochemical
Conditions: glucose 5 mM, ATP 5 mM, 30° C., NADPH monitored at 340 nm for 10 minutes, compound 0.01 to 100 μM (5% DMSO)
Experimental: A glucokinase activity was examined by measuring the amount of NADPH obtained in generating 6-phosphogluconic acid from […], not by directly measuring the generated glucose-6-phosphoric acid. The glucokinase enzyme used in the examination was human-liver type GST-GK expressed by E. Coli. The measurement of the activity was carried out by the following procedures. Specifically, 30 mM HEPES buffer (pH7.4) containing 30 mM MgCl2, 30 mM KCl, 1 mM DTT, 5 mM NADP (Nacalai), 0.7 mU/mL G6PDH (Roche 737-232 grade II from yeast) and 0.17 μL/mL GST-GK was prepared as a reaction solution. An evaluating compound dissolved in DMSO was added to the reaction solution to give a final concentration of 0.01 to 100 μM (5% DMSO). Thereto was added glucose (final concentration of 5 mM) as a substrate and was added ATP (final concentration of 5 mM) to proceed the reaction. The reaction temperature is 30° C. and a generation of NADPH was monitored by changes of absorbance of 340 nm. An increase of absorbance for 10 minutes after starting reaction was measured and the blank-corrected value was used as a GK activity (mOD/min). EC50 level was calculated by a GK activity level in an addition of the evaluating compound at each concentration.

Row | SMILES | EC50 [nM]
1 | CN(C)S(=O)(=O)c1cnc(NC(=O)/C(=N/N2CCCC2)c2ccc(S(=O)(=O)C3CC3)cc2)s1 [Example 64] | 120
2 | COc1ccc2nc(NC(=O)/C(=N/N3CCCC3)c3ccc(S(=O)(=O)C4CC4)cc3)sc2n1 [Example 1] | 70
3 | O=C(Nc1ncc(Br)s1)/C(=N/N1CCCC1)c1ccc(S(=O)(=O)C2CC2)cc1 [Example 24] | 30
4 | O=C(Nc1ncc(F)s1)/C(=N/N1CCOCC1)c1ccc(S(=O)(=O)C2CC2)cc1 [Example 2] | 360
5 | CN1CCN(S(=O)(=O)c2cnc(NC(=O)/C(=N/N3CCCC3)c3ccc(S(=O)(=O)C4CC4)cc3)s2)CC1 [Example 27] | 220
6 | O=C(Nc1ncc(Cl)s1)/C(=N/N1CCOCC1)c1ccc(S(=O)(=O)C2CC2)cc1 [Example 42] | 110
